Assays:
mPIEZO1 = target: T1, mPIEZO1 (Mus musculus, UniProt E2JF22); experiment: Automated patch clamp (SyncroPatch 384) on mPIEZO1-TREx cells; type: cell-based; settings: for Effect on M-Stim-evoked currents: mPIEZO1-TREx cells, −80 mV; for Cells responding to activation: mPIEZO1-TREx, 10 μM KC157, 10 μM Yoda1, 5 μM KC159
T1 construct: expressed in transfected cells
Method: For automated patch clamp, cells were cultured and harvested according to Nanion's standard cell culture protocol (Obergrussberger et al., [2014]). hPIEZO1‐TREx cells were induced to express PIEZO1 by incubation with 0.5 μg·ml^−1 tetracycline 24 h prior to experiments. Whole‐cell patch‐clamp recordings were conducted on HEK‐TREx, hPIEZO1‐TREx and mPIEZO1‐TREx cells according to Nanion's standard procedure for the SyncroPatch 384, using medium resistance (4–5 MΩ) chips (Obergrussberger et al., [2018]). Cells were held at −80 mV for the duration of the experiment. The channel was activated by mechanical forces in the absence and presence of the agonists. To stimulate PIEZO1 channels mechanically (mechanical stimulation [M‐Stim]), we dispensed 20 μl of solution (either reference or agonist) locally to the cell at a pipetting speed of 110 μl·s^−1 in synchrony with a triggered recording of the current response at the holding potential. The internal solution contained 110 mM KF, 10 mM KCl, 10 mM NaCl, 10 mM HEPES and 10 mM EGTA, pH adjusted to 7.2 with KOH, and the external solution contained 140 mM NaCl, 4 mM KCl, 2 mM CaCl2, 1 mM MgCl2, 5 mM glucose, 10 mM HEPES, pH adjusted to 7.4 with NaOH, and 0.1% DMSO to match the DMSO concentration of the compound solutions. For PIEZO1 stimulation, KC159, KC157 or Yoda1 was applied directly onto the cells via a pipette application. One chip of the SyncroPatch 384 is equipped with 384 wells served by 384 robotic pipettes and connected to 384 individual amplifiers, allowing us to test 384 distinct cells in one experiment. We tested the effect of each specified analogue on mPIEZO1‐, hPIEZO1‐ and untransfected HEK‐TREx cells in parallel and in comparison to mechanical and Yoda1 stimulation. To estimate the EC50 values, four concentrations of each agonist were tested per cell line in one chip, with each cell receiving single concentrations, and the concentration–response curve was calculated across the whole chip (384 cells). Only cells with seal resistance >0.3 GΩ, series resistance <20 MΩ and cell capacitance >5 and <40 pF were used for analysis.
DataControl 384 (Nanion Technologies GmbH), Prism 9 (GraphPad) and OriginPro 2020 (OriginLab) were used for all analysis of automated patch‐clamp data. For manual and automated patch‐clamp data, n represents the number of cells recorded from successfully in each experimental condition, sampled from two to six batches of cells or 384‐well chips in automated patch clamp. For manual patch‐clamp experiments, each cell/patch recording (n) is considered as an independent experiment because each was made independently at a separate time, using a separate coverslip of cells and using a separate patch pipette. In some instances, more than one such independent recording was made from the same batch of cultured or transfected cells. These n values are considered as independent. Each cell was studied alone and from a separate coverslip in the case for manual patch clamp. To estimate the EC50 values of the agonists in automated patch‐clamp studies, the peak current in the presence of the agonist was normalised to the peak current in the presence of the reference solution. Single‐point concentration–response curves were fitted with a standard Hill equation to estimate EC50 values. P < 0.05 was deemed significant. For automated patch‐clamp experiments, we included some data for n < 5 (Figure 7a,b). […] Such replicates are a feature of, and a rationale for, this automated technology, which is an innovation for the type of research shown here but already commonly used in the pharmaceutical industry for other ion channel studies to increase throughput and avoid waste from large volumes of independent cell cultures and minimise cost from expensive specially engineered plates. As a general strategy, our study used multiple independent technical approaches to address the same or similar questions. […]

mPIEZO2 = target: T2, mPIEZO2 (Mus musculus, UniProt Q8CD54); experiment: Intracellular Ca2+ measurement in HEK 293 cells overexpressing mPIEZO2; type: cell-based; settings: 10 μM, versus non-transfected cells
T2 construct: host or cells: HEK 293, transient
Method: mPIEZO2 pCMV‐Sport6 was a gift from Ardem Patapoutian (Coste et al., [2015]), obtained via Addgene (Addgene plasmid #81073; http://n2t.net/addgene:81073; RRID:Addgene_81073). It was sequenced for validation. Transient transfection of the plasmid was achieved using Lipofectamine 3000 in HEK 293 cells, 48 h prior to measurements being made.
HEK 293‐TREx cells and their stably transfected derivatives or transiently transfected HEK 293 or HeLa cells were seeded at a density of 7.5 × 10^4 cells per well into poly‐D‐lysine‐coated 96‐well plates. The plates were either commercially pre‐coated with poly‐D‐lysine (Greiner Bio‐One #655946) or (Greiner Bio‐One #655090) were coated in‐house with 35 μl of a 10 μg·ml^−1 poly‐D‐lysine (Bio‐Techne, Cultrex # 3439‐100‐01) in sterile deionised water per well for at least 24 h and rinsed three times with 100 μl per well sterile D‐PBS before addition of cells. HUVECs were seeded into tissue culture‐treated 96‐well plates (Greiner Bio‐One #655090) at a density of either 2.5 × 10^4 cells 24 h before experimentation or 1.25 × 10^4 cells 48 h before experimentation. […] Measurements were made at room temperature on a 96‐well fluorescence plate reader (FlexStation 3, Molecular Devices, Sunnyvale, CA, USA) controlled by SoftMax Pro software v7.0.3. […]

T1 sequence (E2JF22 whole entry): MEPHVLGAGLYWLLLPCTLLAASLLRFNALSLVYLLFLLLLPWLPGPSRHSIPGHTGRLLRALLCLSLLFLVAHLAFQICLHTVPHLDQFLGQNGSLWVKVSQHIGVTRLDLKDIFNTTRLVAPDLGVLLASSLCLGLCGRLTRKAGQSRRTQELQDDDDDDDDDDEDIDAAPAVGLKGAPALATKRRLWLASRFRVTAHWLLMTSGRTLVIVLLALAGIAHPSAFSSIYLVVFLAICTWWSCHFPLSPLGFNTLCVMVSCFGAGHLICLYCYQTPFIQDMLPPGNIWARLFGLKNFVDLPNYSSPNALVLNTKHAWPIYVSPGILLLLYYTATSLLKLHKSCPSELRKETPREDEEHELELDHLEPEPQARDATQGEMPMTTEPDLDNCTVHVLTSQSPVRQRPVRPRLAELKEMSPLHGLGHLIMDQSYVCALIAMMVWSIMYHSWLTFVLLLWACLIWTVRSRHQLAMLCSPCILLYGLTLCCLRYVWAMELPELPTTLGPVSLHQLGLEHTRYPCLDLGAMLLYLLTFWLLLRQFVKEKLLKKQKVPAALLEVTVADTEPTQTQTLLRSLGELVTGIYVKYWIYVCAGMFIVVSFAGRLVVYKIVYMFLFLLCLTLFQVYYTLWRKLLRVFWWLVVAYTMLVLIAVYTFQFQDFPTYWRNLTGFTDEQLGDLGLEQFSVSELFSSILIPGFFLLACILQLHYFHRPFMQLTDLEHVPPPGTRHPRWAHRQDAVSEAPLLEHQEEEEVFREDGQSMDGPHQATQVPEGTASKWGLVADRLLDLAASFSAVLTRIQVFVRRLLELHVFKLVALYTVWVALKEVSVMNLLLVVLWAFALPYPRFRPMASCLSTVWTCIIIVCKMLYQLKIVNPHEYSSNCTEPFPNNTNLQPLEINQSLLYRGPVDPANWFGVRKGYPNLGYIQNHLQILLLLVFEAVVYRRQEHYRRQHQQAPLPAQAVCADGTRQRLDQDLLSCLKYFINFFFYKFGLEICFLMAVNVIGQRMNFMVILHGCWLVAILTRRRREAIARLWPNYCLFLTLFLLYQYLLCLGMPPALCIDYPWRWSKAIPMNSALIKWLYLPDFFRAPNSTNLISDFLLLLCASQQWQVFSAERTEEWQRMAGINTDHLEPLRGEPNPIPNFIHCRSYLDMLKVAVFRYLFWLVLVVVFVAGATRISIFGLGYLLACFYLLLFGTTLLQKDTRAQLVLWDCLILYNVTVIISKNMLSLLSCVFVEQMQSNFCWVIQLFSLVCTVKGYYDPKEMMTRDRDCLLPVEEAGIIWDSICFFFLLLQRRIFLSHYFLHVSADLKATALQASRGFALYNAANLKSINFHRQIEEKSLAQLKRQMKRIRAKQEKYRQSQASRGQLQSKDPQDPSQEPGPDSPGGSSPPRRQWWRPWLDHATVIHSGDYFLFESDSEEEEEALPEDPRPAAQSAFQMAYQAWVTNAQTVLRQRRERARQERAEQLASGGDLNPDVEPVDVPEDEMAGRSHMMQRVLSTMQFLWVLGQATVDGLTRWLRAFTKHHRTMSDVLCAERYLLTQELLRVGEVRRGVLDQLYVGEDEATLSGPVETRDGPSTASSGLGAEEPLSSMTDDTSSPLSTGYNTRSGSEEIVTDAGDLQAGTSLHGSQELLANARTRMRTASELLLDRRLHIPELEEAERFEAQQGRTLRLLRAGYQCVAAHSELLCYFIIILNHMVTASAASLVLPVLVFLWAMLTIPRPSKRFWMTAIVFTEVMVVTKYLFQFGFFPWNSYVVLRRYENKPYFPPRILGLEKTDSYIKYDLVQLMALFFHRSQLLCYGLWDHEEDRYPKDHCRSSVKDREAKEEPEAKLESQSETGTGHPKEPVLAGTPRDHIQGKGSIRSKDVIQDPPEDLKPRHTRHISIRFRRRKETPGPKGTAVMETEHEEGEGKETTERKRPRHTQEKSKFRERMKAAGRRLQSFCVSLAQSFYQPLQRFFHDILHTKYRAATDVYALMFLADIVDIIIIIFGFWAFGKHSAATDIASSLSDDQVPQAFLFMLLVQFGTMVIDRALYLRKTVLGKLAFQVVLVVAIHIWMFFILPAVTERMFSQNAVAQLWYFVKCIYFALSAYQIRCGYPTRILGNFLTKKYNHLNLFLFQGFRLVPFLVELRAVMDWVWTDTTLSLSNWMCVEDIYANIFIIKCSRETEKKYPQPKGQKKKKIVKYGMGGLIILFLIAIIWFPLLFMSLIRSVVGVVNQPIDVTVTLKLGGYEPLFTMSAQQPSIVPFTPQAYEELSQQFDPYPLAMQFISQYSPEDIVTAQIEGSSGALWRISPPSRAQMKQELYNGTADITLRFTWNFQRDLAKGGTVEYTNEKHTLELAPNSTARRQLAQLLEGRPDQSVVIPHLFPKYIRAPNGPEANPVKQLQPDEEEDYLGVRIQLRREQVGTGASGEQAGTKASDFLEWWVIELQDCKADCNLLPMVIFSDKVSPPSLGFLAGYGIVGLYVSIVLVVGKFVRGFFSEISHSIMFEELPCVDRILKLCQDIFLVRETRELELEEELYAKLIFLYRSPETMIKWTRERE

Row | SMILES | Effect on M-Stim-evoked currents (mPIEZO1; 10 μM) | Cells responding to activation (mPIEZO1) | Sustained component of current as % of the peak current amplitude (mPIEZO1; 10 μM, mPIEZO1 cells, mean ± SD) [%] | EC50 (mPIEZO1; mouse PIEZO1, normalised peak current, maximum response not certain, read-out: EC50 (estimate)) [µM] | Ca2+ elevations in cells overexpressing mPIEZO2 (mPIEZO2)
1 | O=C(O)c1ccccc1-c1nnc(SCc2c(Cl)cccc2Cl)s1 [KC157] | mostly fails to evoke responses | largely ineffective | – | – | –
2 | O=C(O)c1ccc(-c2nnc(SCc3c(Cl)cccc3Cl)s2)cc1 [KC159] | greatly amplifies the currents | more cells to respond compared with Yoda1 | 26 ± 8 | ~1.54 | not different from background signals in non‐transfected cells
3 | O=C([O-])c1ccc(-c2nnc(SCc3c(Cl)cccc3Cl)s2)cc1.[K+] [KC289] | – | – | – | – | not different from background signals in non‐transfected cells

Reference: PMC10952572, “Improved PIEZO1 agonism through 4‐benzoic acid modification of Yoda1” (British Journal of Pharmacology, 2023)
